In patent publication EP0605261B1, “Use of a flavone derivative as taste modifier and a method of modifying taste” (SAN-EI GEN F.F.I., INC., priority 1992, dated 1994):

What was measured:
Type in all cases: in vivo
[1] = Sensory test: body and deliciousness (soft candy); settings: 0.00001 (g) Compound 1, 8 panellers
Method: Compound 1 of the flavone derivative (I) was used as a taste modifier. Gelatin which was swelled in advance with a part of water, followed by heating to dissolve, granulated sugar, thick malt syrup and the remaining water was mixed, followed by boiling down to 130°C. Then, fondant paste, vegetable oils and fats, emulsifier, colorant and the flavone derivative (I) were added thereto, thereby preparing flavone derivative (I)-containing soft candy. Alternatively, flavone derivative (I) free soft candy was prepared as a control by the same method.
Sensory tests for obtained soft candy were conducted by 8 panellers comprised of 6 males and 2 females at the age from 20 to 40.

[2] = Sensory test (limiting method): enhancing the sourness of acid sugar solution; set-up: key: (equivalent citric acid content / citric acid content with flavone) × 100; settings: citric acid 1.000 (g), flavone derivative (I) 0.00001 (g), 8 panellers; for Value of enhancing the sourness Ascending system: ascending system (from low concentration); for Value of enhancing the sourness Descending system: descending system (from high concentration)
Method: Compounds 1 to 11 of the flavone derivative (I) were used as a taste modifier to prepare acid sugar solution having compositions as follows:
As a control, 21 types of acid sugar solutions are used. In the control, the flavone derivative (I) is removed from the above composition and the content of citric acid is varied from 1.000 g to 1.500 g by 0.025 g.
Sensory tests were carried out by 8 trained panellers in accordance with a limiting method described in the Hand Book of Sensory evaluation, edited by Research Committee of sensory evaluation, Union of Japanese Scientists and Engineers, p.398 (1973) in use of acid sugar solutions containing respective flavone derivatives (I) and another acid sugar solutions having a various content of citric acid.
As for the content of citric acid, two types sensory tests were conducted, one was an ascending system (testing from solution with low concentration) and another was a descending system (testing from solution with high concentration).
The sensory evaluation was made by a value of enhancing the sourness. The value of enhancing the sourness was calculated by the following formula based on the content of citric acid in acid sugar solutions with varied concentration of citric acid, which has an equivalent stimulation with an acid sugar solution containing the flavone derivative (I) Value of enhancing the sourness = (content of citric acid in acid sugar solution sensed as an equivalent stimulation/content of citric acid in acid sugar solution containing the flavone derivative (I)) x 100 [formula]

[3] = Sensory test: refreshness, its continuity and quality of taste (hard candy); settings: 0.1 (w/w)% flavor composition D (0.0001 (g) Compound 1) vs C, 8 panellers
Method: Compound 1 of the flavone derivative (I) was used as a taste modifier. Hard candy containing the above flavor composition C (control) or D (containing the flavone derivative (I)) was prepared.
First, 60 g of sugar, 40 g of thin malt syrup and 20 g of water were mixed and heated up to about 150°C to boil down, and then allowed to cool to about 120 °C while stirring. Next, the above flavor composition C was added thereto such that 0.1 (w/w)% of the flavor composition was contained and it is poured into a box, thereby preparing flavone derivative (I) free hard candy.
Alternatively, the flavor composition D was used in stead of the flavor composition C to prepare flavone derivative (I)-containing hard candy in accordance with the same method.
Sensory tests for obtained hard candy were carried out by 8 panellers comprised of 6 males and 2 females at the age from 20 to 40.

[4] = Sensory test: body and deliciousness (bread); settings: 0.00002 (g) Compound 5, 8 panellers
Method: Compound 5 of the flavone derivative (I) was used as a taste modifier. Strong flour, yeast food, bread yeast and water were mixed and fermented for four hours at 28°C. Dough materials comprising strong flour, sugar, powdered skim milk, shortening and water, and the flavone derivative (I) were added thereto and subjected to dough process, followed by baking for 25 minutes at 220°C, thereby preparing bread. Flavone derivative (I) free bread was prepared in the same manner as a control.
Sensory tests for obtained bread were conducted by 8 panellers comprised of 6 males and 2 females at the age from 20 to 40.

[5] = Five points evaluation test: saltiness and savor modifying effect (salted squid); set-up: key: five-point scale; untreated standard scored 2; settings: average points of 5 panellers (2: no changes)
Method: Compound 5 of the flavone derivative (I) was used as a taste modifier. To commercially available salted squids, 1, 0.1 and 0.01 ppm of the flavone derivative (I) was added respectively to prepare samples. Sensory tests were carried out for the saltiness and the savor of salted squid. Flavone derivative (I) free salted squids were used as standards.
(§1) The sensory tests were conducted by 5 trained panellers to examine saltiness modifying effect (so called saltiness adapting effect) and savor modifying effect.
(§2) Each sample solution was evaluated assuming that the standard solution has the point of 2.

[6] = Five points evaluation test: saltiness and brackish taste modifying effect (soy sauce with low salt concentration); set-up: key: five-point scale; additive-free standard solution scored 2; settings: average points of 5 panellers (2: no changes)
Method: Compound 5 of the flavone derivative (I) was used as a taste modifier. To commercially available soy sauce with low salt concentration (salt concentration: 7 w/w%), 1, 0.1 and 0.01 ppm of the flavone derivative (I) was added respectively to prepare sample solutions. Sensory tests were carried out for the respective concentrations of sample solutions and 1/2 diluted solutions thereof. Flavone derivative (I) free solutions were used as standard solutions.
The sensory tests were conducted by 5 trained panellers to examine saltiness modifying effect (so called saltiness adapting effect) and brackish taste modifying effect.
as §2

[7] = Five points evaluation test: saltiness and savor modifying effect (ham made of pork loin); settings: Ham made of pork loint, average points of 5 panellers (2: no changes)
Method: Compound 6 of the flavone derivative (I) were used as a taste modifier. Ham made of pork loin was prepared by a general method, in use of pickle solutions containing the flavone derivative (I) in the amount of 1, 0.1 and 0.01 ppm and flavone derivative (I) free standard pickle solution, respectively. Sensory tests were carried out for modifying effects of the saltiness and the savor.
as §1, §2
The pickle solution containing the above was prepared and cooled for a night. Then, raw meat (native pork) was molded and the pickle solution was injected at a rate of 120% to the molded meat. After injection, the molded meat was tumbled with tumbler (12 R. P. M./60 minutes) and salted for a night. It was packed in a container and subjected to dry at 60°C for 60 minutes, smoke at 70°C for 40 minutes and steam at 78°C (the temperature of the center raised to 70°C) to finish the processing. The processed meat was cooled for a night and evaluated.

[8] = Sensory test: refreshness, its continuity and quality of taste (mouth refreshing agent); settings: 0.1 (w/w)% flavor composition F (0.00005 (g) Compound 9) vs E, 8 panellers
Method: Compound 9 of the flavone derivative (I) was used as a taste modifier. Mouth refreshing agent comprising the above flavor composition E (control) or F (containing the flavone derivative (I)) was prepared.
First, 30 g of ethanol, 10 g of glycerin, 2 g of polyoxyethylene hardened castor oil, 0.1 g of sodium saccharin, 0.005 g of chlorhexidine and 58 g of water were mixed, and the above flavor composition E was added thereto such that 0.1 (w/w)% of the flavor compositon was contained, thereby preparing flavone derivative (I) free mouth refreshing agent. Alternatively, the flavor composition F was used in stead of the flavor composition E to prepare flavone derivative (I)-containing mouth refreshing agent.
Sensory tests for obtained mouth refreshing agents were carried out by 8 panellers comprised of 6 males and 2 females at the age from 20 to 40.

[9] = 0.01 ppm, Soy sauce 1/2 dilution
[10] = 0.01 ppm, Soy sauce Undiluted solution
[11] = 0.10 ppm, Soy sauce 1/2 dilution
[12] = 0.10 ppm, Soy sauce Undiluted solution
[13] = 1.00 ppm, Soy sauce 1/2 dilution
[14] = 1.00 ppm, Soy sauce Undiluted solution

COc1ccc(-c2cc(=O)c3c(OC)c(OC)c(OC)cc3o2)cc1OC [Compound 1, 3',4',5,6,7-pentamethoxyflavone]
Body: Those who sensed no difference [1]: 1 number of people
Body: Those who sensed the flavone derivative (I) additive is better [1]: 7 number of people
Deliciousness: Those who sensed no difference [1]: 0 number of people
Deliciousness: Those who sensed the flavone derivative (I) additive is better [1]: 8 number of people
Quality of taste: Those who sensed no difference [1]: 0 number of people
Quality of taste: Those who sensed the flavone derivative (I) additive is better [1]: 8 number of people
Value of enhancing the sourness Ascending system [2]: 119
Value of enhancing the sourness Descending system [2]: 121
Continuity of the refreshness: Those who sensed D additive is better [3]: 8 number of people
Continuity of the refreshness: Those who sensed no difference [3]: 0 number of people
Quality of taste: Those who sensed D additive is better [3]: 6 number of people
Quality of taste: Those who sensed no difference [3]: 2 number of people
Refreshness: Those who sensed D additive is better [3]: 7 number of people
Refreshness: Those who sensed no difference [3]: 1 number of people

COc1cc(OC)c2c(=O)cc(-c3ccc(OC)c(OC)c3)oc2c1 [Compound 5, 3',4',5,7-tetramethoxyflavone]
Value of enhancing the sourness Ascending system [2]: 118
Value of enhancing the sourness Descending system [2]: 121
Body: Those who sensed no difference [4]: 1 number of people
Body: Those who sensed the flavone derivative (I) additive is better [4]: 7 number of people
Deliciousness: Those who sensed no difference [4]: 2 number of people
Deliciousness: Those who sensed the flavone derivative (I) additive is better [4]: 6 number of people
Quality of taste: Those who sensed no difference [4]: 1 number of people
Quality of taste: Those who sensed the flavone derivative (I) additive is better [4]: 7 number of people
Saltiness and Savor Modifying Effect: Saltiness ([5]; 0.01 ppm): 3.0
Saltiness and Savor Modifying Effect: Savor ([5]; 0.01 ppm): 3.6
Saltiness and Savor Modifying Effect: Total evaluation ([5]; 0.01 ppm): 3.4
Saltiness and Savor Modifying Effect: Saltiness ([5]; 0.10 ppm): 3.4
Saltiness and Savor Modifying Effect: Savor ([5]; 0.10 ppm): 3.8
Saltiness and Savor Modifying Effect: Total evaluation ([5]; 0.10 ppm): 3.6
Saltiness and Savor Modifying Effect: Saltiness ([5]; 1.00 ppm): 3.8
Saltiness and Savor Modifying Effect: Savor ([5]; 1.00 ppm): 4.0
Saltiness and Savor Modifying Effect: Total evaluation ([5]; 1.00 ppm): 3.8
Brackish Taste Modifying Effect [6, 9]: 3.6
Saltiness Modifying Effect [6, 9]: 3.8
Brackish Taste Modifying Effect [6, 10]: 3.4
Saltiness Modifying Effect [6, 10]: 3.6
Brackish Taste Modifying Effect [6, 11]: 4.0
Saltiness Modifying Effect [6, 11]: 4.0
Brackish Taste Modifying Effect [6, 12]: 3.4
Saltiness Modifying Effect [6, 12]: 3.6
Brackish Taste Modifying Effect [6, 13]: 4.0
Saltiness Modifying Effect [6, 13]: 4.4
Brackish Taste Modifying Effect [6, 14]: 4.0
Saltiness Modifying Effect [6, 14]: 4.0

COc1ccc(-c2cc(=O)c3c(OC)cc(OC)c(OC)c3o2)cc1 [Compound 6, 5,7,8,4'-tetramethoxyflavone]
Value of enhancing the sourness Ascending system [2]: 120
Value of enhancing the sourness Descending system [2]: 123
Saltiness and Savor Modifying Effect: Saltiness ([7]; 0.10 ppm in pickle solution): 3.0
Saltiness and Savor Modifying Effect: Savor ([7]; 0.10 ppm in pickle solution): 3.0
Saltiness and Savor Modifying Effect: Total evaluation ([7]; 0.10 ppm in pickle solution): 3.0
Saltiness and Savor Modifying Effect: Saltiness ([7]; 1.00 ppm in pickle solution): 3.4
Saltiness and Savor Modifying Effect: Savor ([7]; 1.00 ppm in pickle solution): 3.4
Saltiness and Savor Modifying Effect: Total evaluation ([7]; 1.00 ppm in pickle solution): 3.4

COc1ccc(-c2cc(=O)c3c(O)c(OC)c(OC)c(OC)c3o2)cc1 [Compound 9, 5-hydroxy-4',6,7,8-tetramethoxyflavone]
Value of enhancing the sourness Ascending system [2]: 117
Value of enhancing the sourness Descending system [2]: 119
Continuity of refreshness: Those who sensed F additive is better [8]: 8 number of people
Continuity of refreshness: Those who sensed no difference [8]: 0 number of people
Quality of taste: Those who sensed F additive is better [8]: 6 number of people
Quality of taste: Those who sensed no difference [8]: 2 number of people
Refreshness: Those who sensed F additive is better [8]: 7 number of people
Refreshness: Those who sensed no difference [8]: 1 number of people
